# Source: paper PMC11614538, “The proline-rich antimicrobial peptide B7-005: low bacterial resistance, safe for human cells and effective in zebrafish embryo bacteraemia model” (Open Biology, 2024)
# Residues, ends and D or L forms follow the SMILES beside them.
# How the values were obtained:
# E. coli ATCC 25922 = experiment: microbe, parasite or virus in culture; settings: for MIC after 14th passage: 14 daily passages at one-half MIC, 18 h; for MIC: Escherichia coli, ATCC25922
# Procedure: Escherichia coli ATCC 25922 was purchased from the American Type Culture Collection (ATCC) (Manassas, Virginia, USA) and stored at −80°C as glycerol stock until use. Bacterial cultures were grown overnight in sterile Müller–Hinton broth (MHB) (Difco Inc.) at 37°C under agitation (140 r.p.m.). The next day, the cultures were diluted 1 : 30 in new MHB and incubated as described above for about 2 h (mean logarithmic phase) until they reached an optical density at 600 nm of about 0.3 and then diluted in fresh MHB to the desired concentrations.
# The effects of human serum on the antimicrobial activity of B7-005 were assessed by performing a minimum inhibitory concentration (MIC) assay with some modifications. Non-heat-inactivated human serum (Merk Life Science S.r.l., USA) was diluted to 50%, 40%, 30%, 25%, and 20% (v/v) in MHB and the solutions were aliquoted into the wells of a round-bottomed 96-well microtitre plate (Sarstedt, Milan, Italy). Samples with no serum were used for comparison. B7-005 was diluted in MHB added with the proper amount of serum to a concentration of 128 μM, added to the first column of the plate and serially diluted twofold in MHB, added with the proper amount of serum, in the subsequent wells in a final volume of 50 μl. Then 50 μl of a mid-log suspension of 5 × 10^5 CFU ml^−1 E. coli ATCC 25922 cells prepared in MHB added with the proper amount of serum was added to each well of the plate, halving the final concentration of bacteria and peptide. The plate was incubated at 37°C for 18 h. The MIC value was calculated as the lowest concentration of the compound resulting in complete inhibition of visible bacterial growth. MIC values were determined by performing at least three independent experiments (n ≥ 3).
# The resistance selection assay was performed by modifying a previously described method. First, the MIC values of each antimicrobial compound (PrAMP or antibiotic) against E. coli ATCC 25922 were determined and recorded as described above. Serial sub-culturing was started by harvesting bacterial cells growing at one-half MIC and inoculating them into fresh MHB. […] This inoculum was incubated o/n and subjected to another MIC test. After 18 h of incubation, the cells growing at one-half MIC were harvested and used for another similar MIC assay. The process was repeated for 7 or 14 daily passages.
# [1] = system: zebrafish larvae infection model; settings: simultaneous injection of pathogens and peptide versus post-infection administration; ref [40]; cited from earlier work
# Text: In the current work, the infection of zebrafish larvae with E. coli and their treatment with B7-005 were strictly controlled performing them by microinjection in the Cuvier duct. […] To better ...
compound,measurement,setting,value
CC[C@H](C)[C@H](NC(=O)[C@H](CCCNC(=N)N)NC(=O)[C@@H](N)CCCNC(=N)N)C(=O)N[C@@H](CCCNC(=N)N)C(=O)N1CCC[C@H]1C(=O)N[C@@H](CCCNC(=N)N)C(=O)N1CCC[C@H]1C(=O)N1CCC[C@H]1C(=O)N[C@@H](CCCNC(=N)N)C(=O)N[C@@H](CC(C)C)C(=O)N1CCC[C@H]1C(=O)N[C@@H](CCCNC(=N)N)C(=O)N1CCC[C@H]1C(=O)N[C@@H](CCCNC(=N)N)C(=O)N1CCC[C@H]1C(=O)N[C@@H](CCCNC(=N)N)C(=O)O [Bac7(1-16)] (H-RRIRPRPPRLPRPRPR-OH),MIC after 14th passage,E. coli ATCC 25922; MHB,128 µM
CC[C@H](C)[C@H](NC(=O)[C@H](CCCNC(=N)N)NC(=O)[C@@H](N)CCCNC(=N)N)C(=O)N[C@@H](CCCNC(=N)N)C(=O)N1CCC[C@H]1C(=O)N[C@@H](CCCNC(=N)N)C(=O)N1CCC[C@H]1C(=O)N1CCC[C@H]1C(=O)N[C@@H](CCCNC(=N)N)C(=O)N[C@@H](CC(C)C)C(=O)N1CCC[C@H]1C(=O)N[C@@H](CCCNC(=N)N)C(=O)N1CCC[C@H]1C(=O)N[C@@H](CCCNC(=N)N)C(=O)N1CCC[C@H]1C(=O)N[C@@H](CCCNC(=N)N)C(=O)N1CCC[C@H]1C(=O)N[C@@H](CC(C)C)C(=O)N1CCC[C@H]1C(=O)N[C@@H](Cc1ccccc1)C(=O)N1CCC[C@H]1C(=O)N[C@@H](CCCNC(=N)N)C(=O)N1CCC[C@H]1C(=O)NCC(=O)N1CCC[C@H]1C(=O)N[C@@H](CCCNC(=N)N)C(=O)N1CCC[C@H]1C(=O)N[C@H](C(=O)N1CCC[C@H]1C(=O)N[C@@H](CCCNC(=N)N)C(=O)N1CCC[C@H]1C(=O)N[C@@H](CC(C)C)C(=O)N1CCC[C@H]1C(=O)N[C@@H](Cc1ccccc1)C(=O)N1CCC[C@H]1C(=O)O)[C@@H](C)CC [Bac7(1-35)] (H-RRIRPRPPRLPRPRPRPLPFPRPGPRPIPRPLPFP-OH; N-terminus and C-terminus assumed),MIC after 14th passage,E. coli ATCC 25922; MHB,128 µM
same,passage (cycle) after which MIC started to increase,"E. coli ATCC 25922; serial passages at one-half MIC, MHB",5
O=C(N[C@H](CO)[C@H](O)c1ccc([N+](=O)[O-])cc1)C(Cl)Cl [chloramphenicol],MIC,E. coli ATCC 25922,1020 µM
same,fold increase in MIC,E. coli ATCC 25922; after 8 passages at one-half MIC,64 fold
CO[C@H]1/C=C/O[C@@]2(C)Oc3c(C)c(O)c4c(O)c(c(/C=N/N5CCN(C)CC5)c(O)c4c3C2=O)NC(=O)/C(C)=C\C=C\[C@H](C)[C@H](O)[C@@H](C)[C@@H](O)[C@@H](C)[C@H](OC(C)=O)[C@@H]1C [rifampicin],MIC,E. coli ATCC 25922,1020 µM
same,fold increase in MIC,E. coli ATCC 25922; after 4 passages at one-half MIC,64 fold
"Bac5: another PrAMP previously used in a zebrafish larvae infection model (RFRPPIRRPPIRPPFYPPFRPPIRPPIFPPIRPPFRPPLGPFP; Bactenecin 5; UniProt P19660 131-173, looked up)",efficacy in zebrafish larvae infection model,[1],only effective when the pathogens and peptide were simultaneously injected
colistin,MIC during serial passaging,E. coli ATCC 25922; throughout the complete serial passaging process,remained substantially unchanged
